Data from paper PMC9763021, “Comprehensive Assessment of Biomolecular Interactions of Morpholine-Based Mixed Ligand Cu(II) and Zn(II) Complexes of 2,2′-Bipyridine as Potential Anticancer and SARS-CoV-2 Agents: A Synergistic Experimental and Structure-Based Virtual Screening” (Bioinorganic Chemistry and Applications, 2022).

Tests used:
Staphylococcus aureus = assay: Agar disc diffusion, strain F; type: cell-based; set-up: (inhibition %): concentration or dose not given beside the values; conditions: for diameter of the clear zone inhibition: control = 6 mm
Method: (§1) In-vitro antimicrobial properties were evaluated for all samples by the agar disc diffusion method towards different fungal and bacterial strains. Additionally, the reported inhibition zone values were comparatively analyzed with the standard antifungal drugs ketoconazole and amphotericin B as well as the standard antibiotic medications streptomycin and amikacin.
(§2) The current research has a curious focus on the in vitro antimicrobial properties of biological systems because these studies are crucial for developing effective antibacterial and antifungal medications. […] It can also be spelled out based on the chelation theory proposed by Overtone and Tweedy. Chelation theory points out that the partial exchanging of the positive charge of the metal center with donor moieties, and overlap of the ligand orbitals will reduce the greater degree of the metal ion's polarity, which ultimately rises the delocalization of π and d electrons over the full chelated ring system. By raising the size of the metal ion due to the retarding of polarization, chelation may also enhance the complexes' lipophilic characteristics, which further stimulate the lipid membrane permeability and break down the bacteria' enzymes responsible for cell wall formation, therefore slowing down the regular cell processes. By preventing the production of cell walls/proteins/DNA, including by obstructing folate metabolism and the cytoplasmic membrane, antimicrobial drugs frequently either fully eliminate microbes or only prevent their cell growth. Additionally, the samples' mode of action may be employed in disrupting the cell's respiration process by forming an H-bond during the morpholine-fused iminic group coordinated with the active metal center of its components, inhibiting proliferation of the cell. […] The difference in the antimicrobial efficacy of some of the compounds towards various microorganisms influences on the impermeability of the cells of the germs or the diversity of ribosomes of the microbes. The % of the inhibition of all substances is estimated from (45) (Table 9).
(§3) (A, B, C, D, and E are represented as gram negative bacteria species Escherichia coli, Salmonella enteric serovar typhi, Salmonella enteric serovar typhi, Pseudomonas aeruginosa, and Shigella flexneri, respectively. F & G are denoted as gram positive bacteria species Staphylococcus aureus and Bacillus cereus. H, I, and J are represented as fungal strains Aspergillus niger, Candida albicans, and Mucor indicus. Standard drugs for bacterial strains: Amikacin & Streptomycin Standard drugs for fungal strains: Ketoconazole and Amphotericin B. [Control (DMSO) = 6 mm].(44) Inhibition %=T–C/T×100, where T and C are represented as the diameter of microbial growth of the sample plates and the control plate (6 mm), respectively. Error limits ±2.5–5.0% (P ≤ 0.05).

Escherichia coli = assay: Agar disc diffusion, strain A; type: cell-based; set-up: (inhibition %): concentration or dose not given beside the values; conditions: for (inhibition %): (T–C)/T×100; for diameter of the clear zone inhibition: control (DMSO) = 6 mm
Method: as §1, §2, §3

Shigella flexneri = assay: Agar disc diffusion, strain E; type: cell-based; set-up: (inhibition %): concentration or dose not given beside the values; conditions: for diameter of the clear zone inhibition: control = 6 mm
Method: as §1, §2, §3

[1] = system: Salmonella enteric serovar typhi; assay: Agar disc diffusion, strain B; type: cell-based; conditions: for diameter of the clear zone inhibition: control = 6 mm
Method: as §1, §2, §3

Bacillus cereus = assay: Agar disc diffusion, strain G; type: cell-based; set-up: (inhibition %): concentration or dose not given beside the values; conditions: for diameter of the clear zone inhibition: control = 6 mm
Method: as §1, §2, §3

[2] = system: Salmonella enteric serovar typhi; assay: Agar disc diffusion, strain C; type: cell-based; conditions: for diameter of the clear zone inhibition: control = 6 mm
Method: as §1, §2, §3

Pseudomonas aeruginosa = assay: Agar disc diffusion, strain D; type: cell-based; set-up: (inhibition %): concentration or dose not given beside the values; conditions: for diameter of the clear zone inhibition: control = 6 mm
Method: as §1, §2, §3

Aspergillus niger = assay: Agar disc diffusion, strain H; type: cell-based; set-up: (inhibition %): concentration or dose not given beside the values; conditions: for diameter of the clear zone inhibition: control = 6 mm
Method: as §1, §2, §3

Candida albicans = assay: Agar disc diffusion, strain I; type: cell-based; set-up: (inhibition %): concentration or dose not given beside the values; conditions: for diameter of the clear zone inhibition: control = 6 mm
Method: as §1, §2, §3

Mucor indicus = assay: Agar disc diffusion, strain J; type: cell-based; set-up: (inhibition %): concentration or dose not given beside the values; conditions: for diameter of the clear zone inhibition: control = 6 mm
Method: as §1, §2, §3

[3] = system: HepG2 liver cancer cell line; assay: MTT cell viability assay, HepG2; type: cell-based, human; conditions: 72 hours exposure
Method: (§4) All substances towards the A549, HepG2, MCF-7, and NHDF cell lines were evaluated by using the MTT approach. The collected data were utilized to compute the IC50 value and contrast it with the gold standard cisplatin anticancer medication.
(§5) Cellular viability or metabolic properties can be measured using the MTT assay, which is a powerful and credible method for anticancer properties. The anticancer efficacy of all test compounds was investigated by the MTT assay against A549, HepG2, MCF-7, and NHDF cell lines. As per the colorimetric approach, the IC50 findings of all test substances were evaluated as the % of cell viability/growth inhibition. […] Nevertheless, complex (1a) has the highest cytotoxic potential among others. The acquired findings were in the subsequent sequence as follows: (cisplatin) > (1a) > (2a) > (HL) (Figure 16 and Table 10). The cytotoxic effectiveness is dependent upon the DNA-binding modalities, the structure-activity relationship, as well as drug concentrations and incubation period exposure. […] As per Tweedy's chelation theory, charge equilibration happens as a result of coordination between the ligands and metal ions, which minimises the polarity of the metal ions and causes the capability of the test complexes to pass via the cell membrane lipid layer. Thus, it put off the synthesis of cell wall/protein/nucleic acids. Additionally, the results of DNA-binding tests using these complexes, including gel electrophoresis, UV-visible spectral titration, hydrodynamic, emission, and CV findings, were in good agreement with the findings of cytotoxicity. The expressions (46) and (47) were supported to measure the % of growth inhibition and cell viability. […]
(§6) A549, HepG2 MCF-7, and NHDF are represented as human lung cancer cell line, liver cancer cell line, breast cancer cell line, and normal human dermal fibroblasts cell line.(45) % Cytotoxiciy=1− Mean absorbance of Sample at 595 nm/Mean absorbance of Controlat 595 nm ×100, (46) Cellviability%=100−Cytotoxiciy%.

[4] = system: MCF-7 breast cancer cell line; assay: MTT cell viability assay, MCF-7; type: cell-based, human; conditions: 72 hours exposure
Method: as §4, §5, §6

[5] = system: A549 human lung cancer cell line; assay: MTT cell viability assay, A549; type: cell-based; conditions: 72 hours exposure
Method: as §4, §5, §6

[6] = system: NHDF normal human dermal fibroblasts cell line; assay: MTT cell viability assay, NHDF; type: cell-based; conditions: 72 hours exposure, normal cells
Method: as §4, §5, §6

[7] = system: calf thymus deoxyribonucleic acid; assay: DNA binding by viscometric (hydrodynamic) technique
Method: The titrations were performed for all compounds including EB (control) at 20, 40, 60, 80, and 100 μM concentrations. In the Ostwald viscometer, these substances were also separately treated with the calf thymus deoxyribonucleic acid solution (100 μM).
Hydrodynamic findings can be utilized to assess the alteration of DNA length and afford details on the binding tendency between small molecules and biomolecules. As a result of their sensitivity to DNA contour length changes, which implies that the average distance between each monomer (cl = 0.338 nm/bp for B-form DNA), the DNA binding properties of all test compounds were further validated by this method. According to the Lerman concept, interactions between small molecules and deoxyribonucleic acid via covalent and noncovalent bindings are often possible. When a chemical substance interacts with the deoxyribonucleic acid double helix, the contour length of DNA increases via intercalation and leads to an increase in the absolute viscosity. Meanwhile, if DNA viscosity is not affected during interactions, which leads to the responsible for the major/minor groove binding due to H-bond/Van der Waals interactions, electrostatic, partial, or nonclassical interaction modes. Therefore, analyzing the binding modes provides additional support for the findings as well as a crucial aspect of the conventional intercalation concept. In this case, it was observed that the absolute viscosity increased consistently along with the concentration of each substance at the fixed DNA concentration. The DNA must extend to facilitate the binding of ligands, which causes a considerable rise in DNA viscosity while small molecules intercalate into the DNA helix. According to equation (12), an increase in relative viscosity denotes an intercalation-induced lengthening of the deoxyribonucleic acid base pair. While adhering to the principle of excluding the nearest neighbors, intercalation entails inserting a planar molecule into a DNA base pair without rupturing the hydrogen bonds that hold the base pairs together. This causes a diminution in the DNA helical twist and an extension of the DNA. Moreover, a molecule can be presumed to bind to deoxyribonucleic acid by intercalation between base pairs if it causes lengthening and unwinding of the deoxyribonucleic acid base pairs. In this case, the relative viscosity of DNA gradually increases, while the […]. Moreover, the affinity interactions and their slope values were observed from the relative specific viscosity (η⁄η0)^1/3 plotted straight line contrasting [Compound]/[DNA], and absolute specific viscosity of deoxyribonucleic acid in the absence or presence of samples was evaluated using equation (12) (Table 3). […] The evaluated slope findings were in the subsequent sequence: (EB) 1.215 > (1a) 0.915 > (2a) 0.630 > (HL) 0.490 (Figure S21 and Table 3). […] Due to the existence of the 2,2′-bipyridine and morpholine-fused aromatic planar systems, compounds can interact with deoxyribonucleic acid robustly via intercalation. The outcomes were excellent in accordance with the observed outcomes of absorption spectral properties.(11) η/η0^1/3=tcomplex−t0/t0/tDNA−t0/t0, where η and η0 are represented as specific viscosity of DNA in the presence complex and specific viscosity of DNA alone, and t0, tDNA, and tcomplex are represented as the average flow time of the Tris-HCl buffer solution, the average flow time of DNA alone solution, and the average flow time of DNA interacted with the samples, respectively. Error limit is ±2.5% (P < 0.025).

SMILES | (inhibition %) (Staphylococcus aureus) [%] | diameter of the clear zone inhibition (Staphylococcus aureus) [mm] | (inhibition %) (Escherichia coli) [%] | diameter of the clear zone inhibition (Escherichia coli) [mm] | (inhibition %) (Shigella flexneri) [%] | diameter of the clear zone inhibition (Shigella flexneri) [mm] | (inhibition %) [1] [%] | diameter of the clear zone inhibition [1] [mm] | (inhibition %) (Bacillus cereus) [%] | diameter of the clear zone inhibition (Bacillus cereus) [mm] | (inhibition %) [2] [%] | diameter of the clear zone inhibition [2] [mm] | (inhibition %) (Pseudomonas aeruginosa) [%] | diameter of the clear zone inhibition (Pseudomonas aeruginosa) [mm] | (inhibition %) (Aspergillus niger) [%] | diameter of the clear zone inhibition (Aspergillus niger) [mm] | (inhibition %) (Candida albicans) [%] | diameter of the clear zone inhibition (Candida albicans) [mm] | (inhibition %) (Mucor indicus) [%] | diameter of the clear zone inhibition (Mucor indicus) [mm] | further results
NCC[C@H](O)C(=O)N[C@@H]1C[C@H](N)[C@@H](O[C@H]2O[C@H](CN)[C@@H](O)[C@H](O)[C@H]2O)[C@H](O)[C@H]1O[C@H]1O[C@H](CO)[C@@H](O)[C@H](N)[C@H]1O [Amikacin, reference compound] | 70 | 20 | 73 | 22 | 70 | 20 | 73 | 22 | 70 | 20 | 75 | 24 | 70 | 20 | – | – | – | – | – | – | –
C[C@@H]1[C@H](O)[C@@H](C)/C=C/C=C/C=C/C=C/C=C/C=C/C=C/[C@H](O[C@@H]2O[C@H](C)[C@@H](O)[C@H](N)[C@@H]2O)C[C@@H]2O[C@](O)(C[C@@H](O)C[C@@H](O)[C@H](O)CC[C@@H](O)C[C@@H](O)CC(=O)O[C@H]1C)C[C@H](O)[C@H]2C(=O)O [Amphotericin B, reference compound] | – | – | – | – | – | – | – | – | – | – | – | – | – | – | 60 | 15 | 65 | 17 | 65 | 17 | –
N.N.[Cl][Pt][Cl] [Cisplatin, reference compound] | – | – | – | – | – | – | – | – | – | – | – | – | – | – | – | – | – | – | – | – | IC50 [3]: 22.9 ± 1.1 µM; IC50 [4]: 20.2 ± 1 µM; IC50 [5]: 31.9 ± 1.6 µM; IC50 [6]: 26.9 ± 1.3 µM
CC[n+]1c(-c2ccccc2)c2cc(N)ccc2c2ccc(N)cc21 [EB (control), Ethidium bromide, reference compound] | – | – | – | – | – | – | – | – | – | – | – | – | – | – | – | – | – | – | – | – | Slope of (η/η0)^1/3 vs [Compound]/[DNA] [7]: 1.215; Relative specific viscosity (η/η0)^1/3 ([7]; [complex]/[DNA] = 0.2): 1.01; Relative specific viscosity (η/η0)^1/3 ([7]; [complex]/[DNA] = 0.4): 1.35; Relative specific viscosity (η/η0)^1/3 ([7]; [complex]/[DNA] = 0.6): 1.63; Relative specific viscosity (η/η0)^1/3 ([7]; [complex]/[DNA] = 0.8): 1.82; Relative specific viscosity (η/η0)^1/3 ([7]; [complex]/[DNA] = 1.0): 1.99
CC(=O)N1CCN(c2ccc(OCC3COC(Cn4ccnc4)(c4ccc(Cl)cc4Cl)O3)cc2)CC1 (centres unmarked) [Ketoconazole, reference compound] | – | – | – | – | – | – | – | – | – | – | – | – | – | – | 63 | 16 | 67 | 18 | 67 | 18 | –
[H]/N=C(/N)N[C@H]1[C@H](O)[C@@H](O)[C@H](O[C@@H]2O[C@@H](C)[C@](O)(C=O)[C@H]2O[C@@H]2O[C@@H](CO)[C@H](O)[C@@H](O)[C@@H]2NC)[C@@H](N/C(N)=N\[H])[C@@H]1O [Streptomycin, reference compound] | 71 | 21 | 75 | 24 | 76 | 25 | 77 | 26 | 71 | 21 | 75 | 24 | 71 | 21 | – | – | – | – | – | – | –
